According to patent publication US8735150B2, “Methods for detecting embryonic stem cells, induced pluripotent stem cells, or cells undergoing reprogramming to produce induced pluripotent stem cells” (New York University, priority 2010, dated 2014):

Assays:
Format in all cases: cell-based, mouse
[1] = tested on: mESC; assay: Flow cytometry of mESC and MEF incubated separately with rosamine hit compounds (secondary screening); details: 500 nM
Procedure: FIG. 5 is a table of flow cytometry results, which show the structure-cell selectivity relationship in CDy1 analogues. The ratios of mESC to MEF fluorescence mean values obtained from flow cytometry were used for cell selectivity analysis. The cells were incubated with 500 nM of each compound for one hour and washed with phosphate buffered saline (PBS) for flow cytometry.
MEFs and mESCs were cultured in 60 mm culture dishes for 24 hours in the presence of 500 nM of hit compounds including CDy1. The cells were harvested by trypsin treatment, washed with PBS, and resuspended in PBS. The fluorescence intensity of the cells was measured with flow cytometry (BD™ LSR II) with PE-Texas Red filter (excitation at 488 nm, emission at 615 nm). The dot plot images for each cell type were overlaid using FlowJo7 (Tree Star Inc., Ashland, Oreg.). […]
For a high-throughput screening, mESC and MEF feeder cells were incubated with 280 rosamine compounds at a concentration of 500 nM in 384-well microplates. After 0.5 hours, 24 hours, and 48 hours, TRITC fluorescence and bright field images were taken using an ImageXpress^MICRO imaging system. […] As a secondary screening, mESC and MEF were incubated separately with each of the hit compounds and these were analyzed using flow cytometry (see work flow set out in FIGS. 1A-1B; results shown in FIGS. 2A-2C and FIG. 3).

[2] = tested on: cells undergoing reprogramming to induced pluripotent stem cells (Oct4-GFP transgenic MEF); assay: FACS isolation of cells undergoing reprogramming with CDy1 and counting of GFP-positive iPS cell colonies; details: sorted by FACS at 10 dpi, 7% of total cell number
Procedure: Oct4-GFP transgenic mouse embryonic fibroblasts (MEF) transfected with retrovirus expressing Oct4, Sox2, Klf4, and c-Myc were incubated with CDy1 at 10 days post infection (dpi). The cells were harvested using trypsin-EDTA and CDy1^bright and CDy1^dim cells defined as 7% of the total cell number at each end were collected by FACS, plated in culture media, and allowed to grow until 20 dpi for counting the number of induced pluripotent stem (“iPS”) cell colonies which were identified by GFP signal (FIG. 15A).
Among the many cell colonies observed in the bright field images, GFP signal was detected from some of them by fluorescence excitation (FIG. 15B).

[3] = tested on: mESC; assay: FACS isolation of mESC from a MEF and mESC mixture stained with CDy1; Nanog RT-PCR and colony forming assay
Procedure: MEFs and mESCs were cultured in 60 mm culture dishes for 24 hours in the presence of 500 nM of hit compounds including CDy1. The cells were harvested by trypsin treatment, washed with PBS, and resuspended in PBS. The fluorescence intensity of the cells was measured with flow cytometry (BD™ LSR II) with PE-Texas Red filter (excitation at 488 nm, emission at 615 nm). The dot plot images for each cell type were overlaid using FlowJo7 (Tree Star Inc., Ashland, Oreg.). For FACS, MEF and mESC were cultured in the same dish and the sample was prepared as described above for flow cytometry. The cells were gated into SSC^low CDy1^bright and SSC^high CDy1^dim regions and were collected using a FACS machine (BD FACS Aria™, BD Biosciences, Franklin Lakes, N.J.).
Total RNA was isolated from cells using RNeasy Mini Kit (QIAGEN Inc.) according to the manufacturer's instruction. cDNA was synthesized from 1 μg of total RNA using REVERTAID™ H Minus First strand cDNA Synthesis kit (Fermentas, Glen Burnie, Md.) and amplified by PCR using GOTAQ® Green Master Mix (Promega, Fitchburg, Wis.). The PCR conditions were as follows: 30 seconds denaturation at 95° C., 30 seconds annealing at 60° C., and a final 30 seconds of extension at 72° C. The sequences of primers used in this study are: Nanog (GenBank Accession No. NM_028016.1): sense 5′-[…]-3′ (SEQ ID NO:1), antisense 5′-[…]-3′ (SEQ ID NO:2); GAPDH (GenBank Accession No. XM—001473443.1): sense 5′-[…]-3′ (SEQ ID NO:3), antisense 5′-[…]-3′ (SEQ ID NO:4). The PCR products obtained after 25 cycles were resolved on 1% agarose gels, visualized by ethidium bromide staining, and the images were taken using a Gel Logic 200 Imaging System (Kodak, Rochester, N.Y.).
To evaluate the capability of CDy1 to isolate ESC from a mixed cell population, a MEF and mESC mixture was stained with CDy1, the mixed cells were gated into SSC^low CDy1^bright and SSC^high CDy1^dim regions, and 40,000 cells were collected by FACS from each gate for a stem cell marker Nanog gene expression analysis and colony forming assay. […]

[4] = tested on: mitochondria in mESC; assay: Co-staining of mESC with CDy1 and MITOTRACKER Deep Red 633
Procedure: In this experiment mESC were incubated with 500 nM CDy1, 200 nM MITOTRACKER® Deep Red 633, and 4 mg/ml Hoechst for 30 minutes at 37° C. and washed with PBS two times. The cells were mounted on slide glass and the images were taken using a Nikon ECLIPSE Ti fluorescence microscope equipped with a ×100 objective lens (Pearson's correlation coefficient=0.88; scale bar, 5 μm).
In a previous study (Kim et al., “Control of Muscle Differentiation by a Mitochondria-Targeted Fluorophore,” J. Am. Chem. Soc. 132(2): 576-579 (2009), which is hereby incorporated by reference in its entirety), CDy1 was among the compounds targeting mitochondria. To examine whether CDy1 localizes in mitochondria in mESC, the cells were co-stained with CDy1 and a mitochondria-staining commercial dye MITOTRACKER® Deep Red 633. […] In addition to the mitochondrial membrane potential which sequesters many cationic rhodamine and rosamine compounds, other factors such as stem cell specific proteins appear to play roles in the entry and retainment of CDy1 rendering it stem cell selective.

[5] = 40,000 cells collected by FACS, three days culture

CCCCN(CCCC)c1ccc2c(-c3cccc(CN4CCOCC4)c3)c3ccc(=N)cc-3oc2c1 [CDy1]
higher fluorescence intensity in mESC than in MEF (ratio of mESC to MEF fluorescence mean values) [1]: 12.2 fold
mESC selectivity (in words) ([1]; mESC vs MEF): most selective for mESCs among the 20 hit compounds
GFP-positive iPS cell colonies from CDy1dim cells [2]: no colonies
GFP-positive iPS cell colonies per well from CDy1bright cells [2]: 51 colonies per well
number of colonies from SSChigh CDy1dim cells [3, 5]: 6
number of colonies from SSClow CDy1bright cells [3, 5]: 604
Nanog expression in SSClow CDy1bright cells versus SSChigh CDy1dim cells ([3]; RT-PCR): much higher
staining pattern compared with MITOTRACKER staining [4]: very similar to MITOTRACKER® staining
Pearson's correlation coefficient of CDy1 and MITOTRACKER co-localization ([4]; 500 nM CDy1, 200 nM MITOTRACKER Deep Red 633, 30 minutes at 37° C.): 0.88
